Columns and labels:
[1] = human, serum
[2] = human, serum; remark: listed apart in the source
[3] = human
[4] = human; remark: listed apart in the source
[5] = human; remark: listed apart in the source
[6] = Highest frequency of moderate liver toxicity observed during clinical trials, expressed as a percentage. [column '% BIOL' in source]; conditions: human
[7] = human, serum, 4383 h
[8] = Highest frequency of acute liver toxicity observed during clinical trials, expressed as a percentage. [column '% AIGUE' in source]; conditions: human
[9] = human; remark: listed apart in the source
[10] = human; remark: listed apart in the source
[11] = human; remark: listed apart in the source
[12] = human; remark: listed apart in the source
[13] = Proposed mechanism(s) of liver damage. [column 'MEC' in source]; conditions: human
[14] = Times to onset, minimal and maximal, observed in the indexed observations. [column 'DELAI' in source]; conditions: human
[15] = human; remark: listed apart in the source
[16] = human; remark: listed apart in the source
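Throughout, for Hepatotoxicity (association with vascular disease): count of indexed literature references reporting vascular liver injury in humans, e.g. peliosis hepatitis, hepatic veno-occlusive disease or Budd-Chiari syndrome.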
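Throughout, for Hepatotoxicity (benign tumour): value is a count of indexed literature references citing a benign tumour confirmed by histopathology.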
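Throughout, for Hepatotoxicity (choleostasis): human cholestatic liver injury, shown by histopathology or by peak ALT or AST elevation over alkaline phosphatase ratio below 2, value counts indexed literature reports.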
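Throughout, for Hepatotoxicity (chronic liver disease): chronic liver injury confirmed by histopathology or persistently raised serum aminotransferase activity beyond 6 months, value given as the count of indexed literature references.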
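Throughout, for Hepatotoxicity (cirrhosis): value is a count of indexed literature references reporting cirrhosis confirmed by histopathology.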
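Throughout, for Hepatotoxicity (cytolytic): human cytolytic liver injury, shown by histopathology or by a ratio above 5 of peak ALT or AST elevation to alkaline phosphatase elevation, value counts indexed references.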
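Throughout, for Hepatotoxicity (granulomatous hepatitis): value is a count of indexed literature references reporting granulomatous liver disease confirmed by histopathology.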
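Throughout, for Hepatotoxicity (malignant tumour): malignant tumour confirmed by histopathology, value gives the count of indexed literature references reporting it.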
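Throughout, for Hepatotoxicity (severe hepatitis): human clinical data: severe hepatitis, meaning potentially life-threatening liver failure or clinically observed cases, the value counts how many indexed literature references report it.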
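Throughout, for Hepatotoxicity (steatosis): steatosis confirmed by histopathology, value is the count of indexed references.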

| Compound | Hepatotoxicity (acute) [1] | Hepatotoxicity (moderate) [2] | Hepatotoxicity (benign tumour) [3] | Hepatotoxicity (steatosis) [4] | Hepatotoxicity (severe hepatitis) [5] | Hepatotoxicity (moderate) [6] [%] | Hepatotoxicity (chronic liver disease) [7] | Hepatotoxicity (acute) [8] [%] | Hepatotoxicity (cytolytic) [9] | Hepatotoxicity (choleostasis) [10] | Hepatotoxicity (association with vascular disease) [11] | Hepatotoxicity (malignant tumour) [12] | Hepatotoxicity (mechanism) [13] | Hepatotoxicity (time to onset) [14] | Hepatotoxicity (granulomatous hepatitis) [15] | Hepatotoxicity (cirrhosis) [16] |
| --- | --- | --- | --- | --- | --- | --- | --- | --- | --- | --- | --- | --- | --- | --- | --- | --- |
| O=c1n(CCCN2CCN(c3cccc(Cl)c3)CC2)nc2ccccn12 [TRAZODONE] | 8 | 0 | 0 | 0 | 1 | 0 | 1 | 0 | 5 | 3 | 0 | 0 | Allergic | 5 days - 18 months | 0 | 0 |
| CCC(COC(=O)c1cc(OC)c(OC)c(OC)c1)(c1ccccc1)N(C)C (stereo unspecified) [TRIMEBUTINE] | 1 | 0 | 0 | 0 | 0 | 0 | 0 | 0 | 1 | 0 | 0 | 0 | Allergic | 2 weeks | 0 | 0 |
| CN1C(=O)OC(C)(C)C1=O [TRIMETHADIONE] | 3 | 1 | 0 | 0 | 0 | 0 | 0 | 0 | 1 | 0 | 0 | 0 | Allergic | 2 weeks - 1 month | 0 | 0 |
| CC(C)[C@H](N)C(=O)OCCOCn1cnc2c(=O)[nH]c(N)nc21 [VALACYCLOVIR] | 1 | 2 | 0 | 0 | 0 | 17.6 | 0 | 0 | 1 | 1 | 0 | 0 | Dose-dependant | 10 days | 0 | 0 |
| COc1ccc(C(CN(C)C)C2(O)CCCCC2)cc1 (stereo unspecified) [VENLAFAXINE] | 4 | 3 | 0 | 0 | 0 | 2.8 | 0 | 0 | 3 | 1 | 0 | 0 | Allergic | 12 days - 6 months | 0 | 0 |
| CCOC(=O)CN[C@@H](C(=O)N1CC[C@H]1C(=O)NCc1ccc(/C(N)=N\O)cc1)C1CCCCC1 [XIMELAGATRAN] | 3 | 9 | 0 | 0 | 0 | 9.8 | 0 | 6.8 | 0 | 0 | 0 | 0 | Dose-dependant | 1 month - 6 months | 0 | 0 |
| CC(c1cc2ccccc2s1)N(O)C(N)=O (stereo unspecified) [ZILEUTON] | 2 | 8 | 0 | 0 | 0 | 16.7 | 0 | 0 | 1 | 0 | 0 | 0 | Dose-dependant | 24 days | 0 | 0 |
| Cc1cc(CC(=O)O)n(C)c1C(=O)c1ccc(Cl)cc1 [ZOMEPIRAC] | 0 | 2 | 0 | 0 | 0 | 1.7 | 0 | 0 | 0 | 0 | 0 | 0 | Allergic | 2 weeks | 0 | 0 |
| BCG VACCINE | 6 | 7 | 0 | 0 | 0 | 10 | 0 | 0.9 | 2 | 2 | 0 | 0 | Allergic | 1 hour - 2 years | 32 | 0 |
| CARBOPLATIN | 1 | 5 | 0 | 0 | 1 | 27 | 0 | 6.1 | 0 | 1 | 5 | 0 | Dose-dependant | 1 week | 0 | 0 |
| NADROPARIN CALCIUM | 0 | 8 | 0 | 0 | 0 | 66.7 | 0 | 0 | 0 | 0 | 0 | 0 | Dose-dependant | 5 days - 1 week | 0 | 0 |

— ChEMBL document CHEMBL3137667, “[Drug-induced liver injury; fourteenth updated edition of the bibliographic database of liver injuries and related drugs]” (Gastroenterol Clin Biol, 2004)
